The assay deals with human PCSK9 (Homo sapiens, UniProt Q8NBP7). The assay is described as follows: PCSK9 ligand binding assay (TR-FRET): interference with binding of human PCSK9 to human LDLR. The conditions noted are these: for pIC50: Human PCSK9 Alexa Fluor 647 / Human LDLR extracellular domain-Europium Kryptate; for Max % inhibition: efficacy (Amax), 100% = 1 uM unlabeled human PCSK9, 0% = DMSO. The method, then:
Example 10: PCSK9 Ligand Binding Assay
The PCSK9 binding of the compounds of the disclosure were measured using a time resolved fluorescence resonance energy transfer (TR-FRET) assay. This time resolved fluorescence resonance energy transfer (TR-FRET) assay measures the ability of a compound of the present disclosure to interfere with the binding of human PCSK9 to human LDLR, providing measures of both potency (IC50) and efficacy (Amax).
Human PCSK9 Alexa Fluor 647
Human LDLR extracellular domain-Europium Kryptate
Proxi plate-low volume assay plate (PerkinElmer #6008280)
Greiner V-bottom (Greiner BioOne #781280)
Assay Buffer • 20 mM HEPES, pH 7.5 • 150 mM NaCl • 1 mM CaCl2 • 0.01% v/v Tween20 • 0.01% w/v BSA
A master compound plate was prepared in a Greiner V bottom plate by diluting compounds of the disclosure in dimethylsulfoxide to the correct concentration for the desired top concentration based on the desired final concentration: for a 30 uM final concentration the master plate concentration is 1.5 mM (68 uL DMSO+12 uL 10 mM of a compound of the disclosure), for a 10 uM final concentration the master plate concentration is 0.5 mM (76 uL DMSO+4 uL 10 mM of a compound of the disclosure), for a 3 uM final concentration the master plate concentration is 150 uM (69 uL DMSO+1 uL 10 mM of a compound of the disclosure). These solutions were pipetted into columns 1 and 11 of the compound plate. Threefold serial dilutions were generated in columns 2-10 and 12-20 of the compound plate by transferring 10 uL into 20 uL of DMSO. Columns 21 and 22 of the compound plate were negative controls containing DMSO alone.
An intermediate plate was generated in a Greiner V bottom plate by transferring 8 uL from each well of the master plate into a corresponding well containing 92 uL of assay buffer and mixing thoroughly.
A Proxi plate-low volume assay plate was used for the assay. To all wells of the plate was added 10 uL of 16 nM Human PCSK9 Alexa Fluor 647, followed by 5 uL from the intermediate plate. For the positive control wells in columns 23 and 24 of the plate, 5 uL of unlabeled human PCSK9 was added at 4 uM in assay buffer containing 8% DMSO. Following a 30 minute incubation, 5 uL of 4 nM Human LDLR extracellular domain-Europium Kryptate was added and the mixture was incubated for an additional 2 hours.
The TR-FRET signal was measured on an EnVision or PheraStar instrument with a 60 ms delay, 330 nm excitation and 665 nm emission (FRET), and 330 nm excitation and 615 nm (Europium). The FRET ratio (FRET/Europium) was used for calculations.
No inhibition (0%) was observed from the wells containing DMSO (Control) in columns 21 and 22 of the compound plate. Full inhibition (100%) was observed from the wells containing 1 uM human PCSK9 (Control) in columns 23 and 24 of the plate. Data is expressed as percent inhibition: (value—0%)/(100%-0%).

pIC50: −log10 of the molar value.

Sequence of human PCSK9 (Q8NBP7 153-692): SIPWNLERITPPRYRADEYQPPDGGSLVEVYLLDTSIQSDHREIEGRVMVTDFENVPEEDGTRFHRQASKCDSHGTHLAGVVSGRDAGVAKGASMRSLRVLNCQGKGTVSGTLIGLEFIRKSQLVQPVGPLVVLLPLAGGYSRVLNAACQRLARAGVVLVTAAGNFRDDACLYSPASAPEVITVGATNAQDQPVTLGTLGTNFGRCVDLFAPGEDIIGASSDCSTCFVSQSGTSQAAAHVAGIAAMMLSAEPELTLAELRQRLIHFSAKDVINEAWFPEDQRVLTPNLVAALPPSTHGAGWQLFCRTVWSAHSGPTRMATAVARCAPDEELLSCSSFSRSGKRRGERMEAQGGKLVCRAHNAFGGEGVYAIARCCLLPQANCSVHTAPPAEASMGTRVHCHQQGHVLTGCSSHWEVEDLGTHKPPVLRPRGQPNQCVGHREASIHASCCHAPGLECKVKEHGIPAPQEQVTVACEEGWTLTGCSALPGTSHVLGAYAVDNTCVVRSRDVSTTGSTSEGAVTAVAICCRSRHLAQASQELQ
Sequence of human PCSK9 (Q8NBP7 31-152 partner limits assumed): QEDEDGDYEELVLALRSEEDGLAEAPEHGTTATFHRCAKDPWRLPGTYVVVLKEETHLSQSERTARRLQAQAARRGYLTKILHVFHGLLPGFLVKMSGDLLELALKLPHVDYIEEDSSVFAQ

With `COC[C@@H]1NC(=O)[C@H](C)N(Cc2ccc(Cl)cc2Oc2ccc(-c3cnc(CN(C)C)n3C)nc2)C(=O)C[C@@H](Cc2ccccc2)C(=O)N2CCC[C@@](Cc3ccc(Cl)cc3)(C2)N(C)C1=O` [Compound 27, (3R,7S,10S,13R)-3-Benzyl-6-(4-chloro-2-((6-(2-((dimethylamino)methyl)-1-methyl-1H-imidazol-5-yl)pyridin-3-yl)oxy)benzyl)-13-(4-chlorobenzyl)-10-(methoxymethyl)-7,12-dimethyl-1,6,9,12-tetraazabicyclo[11.3.1]heptadecane-2,5,8,11-tetraone], the pIC50 was 9.20 and the Max % inhibition is 111.0%.

Regarding `C[C@H]1C(=O)N[C@@H](CO)C(=O)N[C@@]2(Cc3ccc(Cl)cc3)CCCN(C2)C(=O)[C@H](CC(F)(F)F)CC(=O)N1Cc1c(F)cc(Cl)cc1Oc1ccc(-c2cnc(CN3CCC3)n2C)cc1` [Compound 28, (3S, 7S, 10S, 13R)-6-(2-(4-(2-(azetidin-1-ylmethyl)-1-methyl-1H-imidazol-5-yl)phenoxy)-4-chloro-6-fluorobenzyl)-13-(4-chlorobenzyl)-10-(hydroxymethyl)-7-methyl-3-(2,2,2-trifluoroethyl)-1,6,9,12-tetraazabicyclo[11.3.1]heptadecane-2,5,8,11-tetraone], the negative-log IC50 (pIC50) was 9.21 and the Max % inhibition was 114.2%.

For the compound `COC[C@@H]1NC(=O)[C@H](C)N(Cc2ncc(Cl)cc2Oc2ccc(-c3cnc(CN(C)C)n3C)cc2)C(=O)C[C@@H](CC(F)(F)F)C(=O)N2CCC[C@@](Cc3ccc(Cl)cc3)(C2)NC1=O` [Compound 29, (3S, 7S, 10S, 13R)-6-((5-chloro-3-(4-(2-((dimethylamino)methyl)-1-methyl-1H-imidazol-5-yl)phenoxy)pyridin-2-yl)methyl)-13-(4-chlorobenzyl)-10-(methoxymethyl)-7-methyl-3-(2,2,2-trifluoroethyl)-1,6,9,12-tetraazabicyclo[11.3.1]heptadecane-2,5,8,11-tetraone], the pIC50 is 9.01 and the Max % inhibition is reported as 119.8%.

Turning to `C[C@H]1C(=O)N[C@@H](COC(F)F)C(=O)N[C@@]2(Cc3ccc(Cl)cc3)CCCN(C2)C(=O)[C@H](Cc2ccccn2)CC(=O)N1Cc1ccc(Cl)cc1Oc1ccc(-c2cnc(CN3CCCC3)n2C)cc1` [Compound 30, (3R,7S,10S,13R)-6-(4-Chloro-2-(4-(1-methyl-2-(pyrrolidin-1-ylmethyl)-1H-imidazol-5-yl)phenoxy)benzyl)-13-(4-chlorobenzyl)-10-((difluoromethoxy)methyl)-7-methyl-3-(pyridin-2-ylmethyl)-1,6,9,12-tetraazabicyclo[11.3.1]heptadecane-2,5,8,11-tetraone], the pIC50 was 9.09 and the Max % inhibition is 106.2%.

Consider `C[C@H]1C(=O)N[C@@H](CO)C(=O)N[C@@]2(Cc3ccc(Cl)cc3)CCCN(C2)C(=O)[C@H]([C@H]2CCc3ccccc32)CC(=O)N1Cc1ccc(Cl)cc1Oc1ccc(-c2cnc(CN(C)C)n2C)cn1` [Compound 31, (3S, 7S, 10S, 13R)-6-(4-chloro-2-((5-(2-((dimethylamino)methyl)-1-methyl-1H-imidazol-5-yl)pyridin-2-yl)oxy)benzyl)-13-(4-chlorobenzyl)-3-((R)-2,3-dihydro-1H-inden-1-yl)-10-(hydroxymethyl)-7-methyl-1,6,9,12-tetraazabicyclo[11.3.1]heptadecane-2,5,8,11-tetraone], for which the pIC50 is 8.96 and the Max % inhibition turned out to be 98.3%.

`C[C@H]1C(=O)N[C@@H](CO)C(=O)N(C)[C@@]2(Cc3ccc(Cl)cc3)CCCN(C2)C(=O)[C@H](Cc2ccccn2)CC(=O)N1Cc1c(F)cc(Cl)cc1Oc1ccc(-c2cnc(CN(C)C)n2C)cc1` [Compound 32, (3R,7S,10S,13R)-6-(4-Chloro-2-(4-(2-((dimethylamino)methyl)-1-methyl-1H-imidazol-5-yl)phenoxy)-6-fluorobenzyl)-13-(4-chlorobenzyl)-10-(hydroxymethyl)-7,12-dimethyl-3-(pyridin-2-ylmethyl)-1,6,9,12-tetraazabicyclo[11.3.1]heptadecane-2,5,8,11-tetraone]: the pIC50 was 9.35 and the Max % inhibition came to 105.8%.

Turning to `COC[C@@H]1NC(=O)[C@H](C)N(Cc2ccc(Cl)cc2Oc2ccc(-c3cnc(CN4CCC4)n3C)cc2)C(=O)C[C@@H](CC(F)(F)F)C(=O)N2CCC[C@@](Cc3ccc(Cl)cc3)(C2)NC1=O` [Compound 33, (3S,7S,10S,13R)-6-(2-(4-(2-(Azetidin-1-ylmethyl)-1-methyl-1H-imidazol-5-yl)phenoxy)-4-chlorobenzyl)-13-(4-chlorobenzyl)-10-(methoxymethyl)-7-methyl-3-(2,2,2-trifluoroethyl)-1,6,9,12-tetraazabicyclo[11.3.1]heptadecane-2,5,8,11-tetraone], the negative logarithm of the IC50 (pIC50) is 8.98 and the Max % inhibition came out at 113.0%.

With `C[C@H]1C(=O)N[C@@H](CO)C(=O)N[C@@]2(Cc3ccc(Cl)cc3)CCCN(C2)C(=O)[C@H](Cc2c(F)cccc2F)CC(=O)N1Cc1c(F)cc(Cl)cc1Oc1ccc(-c2cnc(CN(C)C)n2C)cc1` [Compound 34, (3R, 7S, 10S, 13R)-6-(4-chloro-2-(4-(2-((dimethylamino)methyl)-1-methyl-1H-imidazol-5-yl)phenoxy)-6-fluorobenzyl)-13-(4-chlorobenzyl)-3-(2,6-difluorobenzyl)-10-(hydroxymethyl)-7-methyl-1,6,9,12-tetraazabicyclo[11.3.1]heptadecane-2,5,8,11-tetraone], the pIC50 is 9.29 and the Max % inhibition worked out at 101.6%.

Consider `COC[C@@H]1NC(=O)[C@H](C)N(Cc2ccc(Cl)cc2Oc2ccc(-c3cnc(CN(C)C)n3C)cc2)C(=O)C[C@@H](Cc2ncco2)C(=O)N2CCC[C@@](Cc3ccc(Cl)cc3)(C2)NC1=O` [Compound 35, (3R, 7S, 10S, 13R)-6-(4-chloro-2-(4-(2-((dimethylamino)methyl)-1-methyl-1H-imidazol-5-yl)phenoxy)benzyl)-13-(4-chlorobenzyl)-10-(methoxymethyl)-7-methyl-3-(oxazol-2-ylmethyl)-1,6,9,12-tetraazabicyclo[11.3.1]heptadecane-2,5,8,11-tetraone], for which the pIC50 was 9.04 and the Max % inhibition stood at 105.0%.

`C[C@H]1C(=O)N[C@@H](CO)C(=O)N[C@@]2(Cc3ccc(Cl)cc3)CCCN(C2)C(=O)CCC(=O)N1Cc1c(OCC(F)(F)F)cc(Cl)cc1Oc1ccc(-c2cnc(CN(C)C)n2C)cc1` [Compound 36, (7S, 10S, 13R)-6-(4-chloro-2-(4-(2-((dimethylamino)methyl)-1-methyl-1H-imidazol-5-yl)phenoxy)-6-(2,2,2-trifluoroethoxy)benzyl)-13-(4-chlorobenzyl)-10-(hydroxymethyl)-7-methyl-1,6,9,12-tetraazabicyclo[11.3.1]heptadecane-2,5,8,11-tetraone]: the negative logarithm of the IC50 (pIC50) was 9.23 and the Max % inhibition turned out to be 104.5%.

Turning to `C[C@H]1C(=O)N[C@@H](CO)C(=O)N(C)[C@@]2(Cc3ccc(Cl)cc3)CCCN(C2)C(=O)[C@H](Cc2c(F)cc(F)cc2F)CC(=O)N1Cc1ccc(Cl)cc1Oc1ccc(-c2cnc(CN(C)C)n2C)cc1` [Compound 37, (3R, 7S, 10S, 13R)-6-(4-chloro-2-(4-(2-((dimethylamino)methyl)-1-methyl-1H-imidazol-5-yl)phenoxy)benzyl)-13-(4-chlorobenzyl)-10-(hydroxymethyl)-7,12-dimethyl-3-(2,4,6-trifluorobenzyl)-1,6,9,12-tetraazabicyclo[11.3.1]heptadecane-2,5,8,11-tetraone], the pIC50 was 9.35 and the Max % inhibition is on record as 112.0%.

As to `COC[C@@H]1NC(=O)[C@H](C)N(Cc2ccc(Cl)cc2Oc2ccc(-c3cnc(CN(C)C)n3C)cc2)C(=O)C[C@@H](Cc2cccc(C)n2)C(=O)N2CCC[C@@](Cc3ccc(Cl)cc3)(C2)N(C)C1=O` [Compound 38, (3R, 7S, 10S, 13R)-6-(4-chloro-2-(4-(2-((dimethylamino)methyl)-1-methyl-1H-imidazol-5-yl)phenoxy)benzyl)-13-(4-chlorobenzyl)-10-(methoxymethyl)-7,12-dimethyl-3-((6-methylpyridin-2-yl)methyl)-1,6,9,12-tetraazabicyclo[11.3.1]heptadecane-2,5,8,11-tetraone], the negative-log IC50 (pIC50) was 9.15 and the Max % inhibition amounted to 106.4%.
